Assay results: patent US9034906B2, “EP4 agonist” (Asahi Glass Company, Limited, priority 2008, dated 2015)

Experiments:
[1] = system: dextran sodium sulfate-induced colitis; assay: Remission/relapse model of dextran sodium sulfate-induced colitis in mice, therapeutic; type: in vivo, mouse; settings: compound F 1 mg/kg, SASP 100 mg/kg, oral once a day for 50 days
Description: Next, therapeutic effect of compound F on colitis was studied in a chronic model. Female BALB/c mice, 6 weeks old, body weight about 20 g (Japan SLC) were purchased, acclimated for 1 week and used for the study. The mice were divided into a colitis induction group and a normal group. The colitis induction group was allowed to freely drink a 2.6 w/v % DSS (MP Biochemicals, M.W. 36,000-50,000, Lot No. 4556J) solution to induce colitis. On day 8 when the stool score (defined in Example 23) of the colitis induction group reached about 4.5, the mice were subdivided into a control group, a compound F 1 mg/kg administration group and a salazosulfapyridine (SIGMA, Lot No. 085K1930, hereinafter to be abbreviated as SASP) 100 mg/kg administration group. Then the mice were allowed to freely drink distilled water instead of DSS solution for 9 days (remission period). After the grouping, the stool score was evaluated every 3-4 days. […]
Compound F at a dose of 1 mg/kg and SASP at a dose of 100 mg/kg were orally administered once a day, daily, for 50 days from the initial remission period (day 8 from the start of 2.6 w/v % DSS drinking) to the fifth remission period (day 57 from the start of 2.6 w/v % DSS drinking). […] The remission ratio (%) was calculated as a ratio of mice in remission in each group. […]

eye = assay: Local irritative effect on the eye in rabbits; type: in vivo; settings: rabbit, single ocular instillation
Protocol: Japanese white rabbits (male, 10 weeks old, BIOTEC Co., Ltd.) were purchased, acclimated for 1 week and used for the study. Compound F solution (0.01 w/v %) was instilled once into the cornea of both eyes at a volume of 50 μL/eye with a micropipette. The intraocular pressure of the right eye was measured and the local irritative effect on the eye was evaluated using the left eye. After surface anesthesia with oxybupranol (Benoxil 0.4% instillation solution), the intraocular pressure was measured before ocular instillation and 1, 2, 3, 4, 6 and 8 hr after the instillation using a pneumatonometer (Alcon Ltd.). In addition, the local irritative effect on the eye was evaluated by scoring conjunctival congestion, conjunctival edema, cornea opacity, iris congestion, excretion and eye closure performance. For the evaluation, phosphate buffer was used for the solvent control group, and isopropyl unoprostone (Rescula eye drops, Santen Pharmaceutical Co., Ltd.) was used for comparison. Six animals were used for each group and the results were expressed as average.

[2] = system: indomethacin-induced small intestinal injury; assay: Indomethacin-induced small intestinal injury model in rats; type: in vivo, rat; settings: SD rats, 30 min before and 6 hr after indomethacin
Description: The suppressive effect of compound F on small intestinal injury was investigated using indomethacin-induced small intestinal injury model in rats. Administration of non-steroidal anti-inflammatory drugs (NSAIDs) is known to induce hemorrhagic injury in the small intestine of human.
Male SD rats, 7 weeks old (Charles River) were purchased, acclimated for 1 week and used for the study. The rats were grouped based on the body weight and subcutaneously administered with indomethacin (SIGMA, Lot No. 19F0018) at 15 mg/5 mL/kg to all groups to induce small intestinal injury. Compound F at doses of 0.01, 0.1 and 1 mg/kg was orally administered at a volume of 5 mL/kg 30 min before and 6 hr after the subcutaneous administration of indomethacin. To the control group was orally administered a solvent (1 vol % ethanol solution) at 5 mL/kg in the same manner. Eight animals were used for each group.
The rats were intravenously administered with 2 mL of 10 mg/mL Evans blue solution under ether anesthesia 23.5 hr after the indomethacin administration. After 30 min, the rats were bled to death from the abdominal aorta and caudal vena cava under ether anesthesia and the small intestine was isolated. […] The length and width of each ulcer were measured under a stereomicroscope, the area was calculated, and the sum thereof was taken as the total ulcer area.

human EP4 = biological target: T1, human EP4 (Homo sapiens, UniProt P35408); assay: Receptor affinity, tritium-labeled PGE2 binding to membranes of transfected COS-7 cells; settings: binding affinity ratio
T1 construct: expressed in transfected cells; host or cells: COS-7 (membranes)
T1 sequence (P35408 whole entry): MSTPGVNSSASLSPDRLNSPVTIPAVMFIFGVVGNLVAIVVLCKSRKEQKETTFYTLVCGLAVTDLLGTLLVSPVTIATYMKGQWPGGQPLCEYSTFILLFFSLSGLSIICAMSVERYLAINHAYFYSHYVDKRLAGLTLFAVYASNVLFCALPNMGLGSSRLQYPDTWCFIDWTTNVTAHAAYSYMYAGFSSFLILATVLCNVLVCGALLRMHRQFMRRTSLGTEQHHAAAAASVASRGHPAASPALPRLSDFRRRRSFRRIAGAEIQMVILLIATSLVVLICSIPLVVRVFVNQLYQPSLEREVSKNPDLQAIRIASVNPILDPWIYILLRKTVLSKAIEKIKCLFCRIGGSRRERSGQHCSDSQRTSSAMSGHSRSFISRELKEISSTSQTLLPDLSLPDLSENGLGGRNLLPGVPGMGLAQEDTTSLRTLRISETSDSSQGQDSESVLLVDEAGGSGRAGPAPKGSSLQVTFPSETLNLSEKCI
Protocol: PG receptor affinity of compound F and compound J of the present invention was evaluated. Compound F used was one synthesized in Example 9, and compound J was prepared by separating and purifying the compound synthesized in Example 14 with a column (the same preparations were used in the following Examples). COS-7 cells were transfected with the genes of mouse EP4, human EP1-4 or human IP to overexpress the receptor and then the cell membranes were collected. […] The dissociation constant Kd value was obtained and inhibition constant Ki value of each test compound was determined in a conventional method.

[3] = system: ethanol-induced gastric mucosal injury; assay: Ethanol-induced gastric mucosal injury model in rats; type: in vivo, rat; settings: SD rats, 30 min before ethanol
Description: The suppressive effect of compound F on gastric mucosal injury was investigated in ethanol-induced gastric mucosal injury model in rats. This model is frequently used as an animal model of human acute gastritis associated with congestive mucosal injury (Reference K).
Male SD rats (7 weeks old, Charles River) were purchased through Oriental BioService Inc., acclimated for 1 week and used for the study. The rats were grouped based on the body weight, placed in a clean cage set with a wire mesh floor one day before the study, fasted for 19 hr (without water for last 3 hr), and orally administered with ethanol (special grade, Nacalai Tesque, Lot No. V8A5862, 1.5 mL) in all groups to induce gastric mucosal injury. Compound F was orally administered at doses of 0.01, 0.1 and 1 mg/kg 30 min before induction of gastric mucosal injury at a volume of 5 mL/kg. To the control group was orally administered a solvent (1 vol % ethanol solution) at 5 mL/kg in the same manner. Eight animals were used for each group.
The rats were bled to death from the abdominal aorta and caudal vena cava under ether anesthesia after 1 hr from the ethanol administration, and the stomach was isolated. […] The length and width of each ulcer were measured under a stereomicroscope, the area was calculated, and the sum thereof was taken as the total ulcer area.

Cc1cccc([C@@H](C)[C@H](O)/C=C/[C@@H]2[C@@H]3[C@H](C[C@H]2O)O/C(=C\CCCc2nnn[nH]2)C3(F)F)c1 [Compound F, 4-[(Z)-(1S,5R,6R,7R)-6-[(1E,3R,4R)-3-hydroxy-4-(m-tolyl)-1-pentenyl]-7-hydroxy-2-oxa-4,4-difluoro-bicyclo[3.3.0]octan-3-ylidene]-1-(tetrazol-5-yl)butane]
Effect on stool score in remission and relapse periods [1]: decreased the stool score early in the remission period, and suppressed an increase in the score in the relapse period | Local irritant effect on the eye (eye): conjunctival edema and eye closure were observed 1 hr after the instillation in some animals | Effect on total ulcer area (small intestine) ([2]; oral 1 mg/kg): completely reduced the area | Effect on total ulcer area (small intestine) ([2]; oral, from 0.1 mg/kg): significantly reduced the ulcer area in a dose-dependent manner | Affinity for human EP4 higher than to human EP1, EP2 and EP3 (human EP4): ≥ 60 fold | Affinity for human EP4 higher than to human IP (human EP4): ≥ 100 fold | Effect on total ulcer area (stomach) ([3]; oral 1 mg/kg): almost completely reduced the area | Effect on total ulcer area (stomach) ([3]; oral, from 0.01 mg/kg (0.01, 0.1 and 1 mg/kg)): significantly reduced the total ulcer area in a dose-dependent manner
